Structures can show the parent of a compound that is named as a salt.
Key:
Solubility in water = format: physicochemical; conditions: white powder, sodium salt
[1] = system: male mice (SPF1, OF1 strain); assay: Analgesic activity: inhibition of pain reactions (abdominal twistings) after intraperitoneal phenylbenzoquinone, oral administration; format: in vivo; conditions: Mus musculus, po; for inhibition in vivo at 16 mg/kg: 16 mg/kg oral; for inhibition in vivo at 32 mg/kg: 32 mg/kg oral; for inhibition in vivo at 64 mg/kg: 64 mg/kg oral; for inhibition in vivo at 128 mg/kg: 128 mg/kg oral; for inhibition in vivo at 256 mg/kg: 256 mg/kg oral; for ED50: read-out: ED50 (50% effective dose), analgesic
Description: The products tested are administered orally to batches of 6 male mice (SPF1, OF1 strain) weighing 19-20 g.
1 hour later, 0.3 ml of a 0.02% strength solution of phenylbenzoquinone is injected intraperitoneally into each mouse and, from the 5th to the 10th minute after the latter treatment, the number of pain reactions (abdominal twistings) is counted.
Table V to VIII below give the percentage inhibition of these reactions.

[2] = system: SPF male rats, OFA strain; assay: Anti-inflammatory activity: paw swelling after subcutaneous plantar injection of carraghenine, oral administration; format: in vivo; conditions: Rattus norvegicus, po; for inhibition in vivo at 64 mg/kg: 64 mg/kg oral; for inhibition in vivo at 128 mg/kg: 128 mg/kg oral; for inhibition in vivo at 256 mg/kg: 256 mg/kg oral; for ED50: at the moment of greatest swelling of the controls, read-out: ED50 (50% effective dose), anti-inflammatory; for inhibition in vivo at 16 mg/kg: 16 mg/kg oral; for inhibition in vivo at 32 mg/kg: 32 mg/kg oral
Description: Anti-inflammatory activity
The products to be tested are administered orally to batches of 12 SPF male rats, OFA strain, weighing 120-130 g, 2 hours and 30 minutes (1/2 dose each time) before the subcutaneous plantar injection of 0.05 ml of a 1% strength solution of carraghenine. The volume of the back paw which received the phlogogenic agent is measured at regular intervals. The 50% effective dose is calculated at the moment of greatest swelling of the controls.
The results are given in Tables I to IV below, in which the percentage reduction in the inflammation is noted.

[3] = read-out: percentage inhibition of pain reactions
[4] = carraghenine, read-out: percentage reduction in the inflammation

What does the source list for CC1CC(C)c2cc(C(C)C(=O)O)ccc21 (centres unmarked) [Example 6, Sodium salt of 2-methyl-[1,3-dimethyl-indanyl-(5)]-acetic acid]?
solubility in water (Solubility in water): soluble in water; inhibition in vivo at 16 mg/kg [1, 3]: 28%; inhibition in vivo at 32 mg/kg [1, 3]: 41%; inhibition in vivo at 64 mg/kg [1, 3]: 59%; inhibition in vivo at 128 mg/kg [1, 3]: 78%; inhibition in vivo at 256 mg/kg [1, 3]: 72%; ED50 [1]: 40 mg/kg; inhibition in vivo at 64 mg/kg [2, 4]: 16%; inhibition in vivo at 128 mg/kg [2, 4]: 39%; inhibition in vivo at 256 mg/kg [2, 4]: 44%; ED50 [2]: > 256 mg/kg

With CC1Cc2ccc(C(C)C(=O)O)cc2C1 (centres unmarked) [Example 15, Sodium salt of 2-methyl-[2-methyl-indanyl-(5)]-acetic acid] as the molecule, how does the solubility in water (Solubility in water) read?
The solubility in water was “soluble in water”.

What about the inhibition in vivo at 8 mg/kg ([1]; 8 mg/kg oral, read-out: percentage inhibition of pain reactions) of the same molecule?
Its inhibition in vivo at 8 mg/kg is 14%.

What about the inhibition in vivo at 16 mg/kg [1, 3] of the same molecule?
The inhibition in vivo at 16 mg/kg was 18%.

And the inhibition in vivo at 32 mg/kg [1, 3]?
Its inhibition in vivo at 32 mg/kg is 68%.

And the inhibition in vivo at 64 mg/kg [1, 3]?
Its inhibition in vivo at 64 mg/kg is 91%.

What about the ED50 [1] of the same molecule?
The ED50 was 23 mg/kg.

And the inhibition in vivo at 16 mg/kg [2, 4]?
The inhibition in vivo at 16 mg/kg was 11%.

What about the inhibition in vivo at 32 mg/kg [2, 4] of the same molecule?
Its inhibition in vivo at 32 mg/kg is 20%.

And the inhibition in vivo at 64 mg/kg [2, 4]?
Its inhibition in vivo at 64 mg/kg is 27%.

What about the inhibition in vivo at 128 mg/kg [2, 4] of the same molecule?
The inhibition in vivo at 128 mg/kg was 41%.

What about the inhibition in vivo at 256 mg/kg [2, 4] of the same molecule?
Its inhibition in vivo at 256 mg/kg is 68%.

What about the inhibition in vivo at 512 mg/kg ([2]; 512 mg/kg oral, carraghenine, read-out: percentage reduction in the inflammation) of the same molecule?
The inhibition in vivo at 512 mg/kg was 72%.

And the ED50 [2]?
The ED50 was 160 mg/kg.

With CC(C(=O)O)c1ccc2c(c1)CC(C(C)C)C2 (centres unmarked) [Example 31, Sodium salt of 2-methyl-[2-isopropyl-indanyl-(5)]-acetic acid] as the molecule, how does the solubility in water (Solubility in water) read?
Its solubility in water is “soluble in water”.

For CCC1Cc2ccc(C(C)CO)cc2C1 (stereo not drawn) [Example 34, 2-Methyl-β-[2-ethyl-indanyl-(5)]-ethanol], which inhibition in vivo at 32 mg/kg [1, 3] is on record?
Its inhibition in vivo at 32 mg/kg is 12%.

What about the inhibition in vivo at 64 mg/kg [1, 3] of the same molecule?
The inhibition in vivo at 64 mg/kg was 22%.

What about the inhibition in vivo at 128 mg/kg [1, 3] of the same molecule?
Its inhibition in vivo at 128 mg/kg is 60%.

What about the inhibition in vivo at 256 mg/kg [1, 3] of the same molecule?
Its inhibition in vivo at 256 mg/kg is 94%.

And the ED50 [1]?
Its ED50 is 95 mg/kg.

What about the inhibition in vivo at 16 mg/kg [2, 4] of the same molecule?
Its inhibition in vivo at 16 mg/kg is 46%.

What about the inhibition in vivo at 32 mg/kg [2, 4] of the same molecule?
Its inhibition in vivo at 32 mg/kg is 42%.

What about the inhibition in vivo at 64 mg/kg [2, 4] of the same molecule?
Its inhibition in vivo at 64 mg/kg is 51%.

What about the inhibition in vivo at 128 mg/kg [2, 4] of the same molecule?
Its inhibition in vivo at 128 mg/kg is 60%.

What about the inhibition in vivo at 256 mg/kg [2, 4] of the same molecule?
The inhibition in vivo at 256 mg/kg was 61%.

What about the ED50 [2] of the same molecule?
Its ED50 is 50 mg/kg.

For CC1Cc2ccc(CCO)cc2C1 (stereo not drawn) [Example 35, β-[2-Methyl-indanyl-(5)]-ethanol], which inhibition in vivo at 32 mg/kg [1, 3] is on record?
Its inhibition in vivo at 32 mg/kg is 10%.

What about the inhibition in vivo at 64 mg/kg [1, 3] of the same molecule?
The inhibition in vivo at 64 mg/kg was 27%.

And the inhibition in vivo at 128 mg/kg [1, 3]?
Its inhibition in vivo at 128 mg/kg is 69%.

What about the inhibition in vivo at 256 mg/kg [1, 3] of the same molecule?
Its inhibition in vivo at 256 mg/kg is 95%.

What about the ED50 [1] of the same molecule?
Its ED50 is 87 mg/kg.

What about the inhibition in vivo at 16 mg/kg [2, 4] of the same molecule?
Its inhibition in vivo at 16 mg/kg is 43%.

And the inhibition in vivo at 32 mg/kg [2, 4]?
Its inhibition in vivo at 32 mg/kg is 42%.

And the inhibition in vivo at 64 mg/kg [2, 4]?
Its inhibition in vivo at 64 mg/kg is 56%.

What about the inhibition in vivo at 128 mg/kg [2, 4] of the same molecule?
The inhibition in vivo at 128 mg/kg was 76%.

What about the inhibition in vivo at 256 mg/kg [2, 4] of the same molecule?
The inhibition in vivo at 256 mg/kg was 89%.

What about the ED50 [2] of the same molecule?
Its ED50 is 35 mg/kg.

For CC(C)C1Cc2ccc(CCO)cc2C1 (stereo not drawn) [Example 37, β-[2-Isopropyl-indanyl-(5)]-ethanol], which inhibition in vivo at 16 mg/kg [1, 3] is on record?
Its inhibition in vivo at 16 mg/kg is 0%.

What about the inhibition in vivo at 32 mg/kg [1, 3] of the same molecule?
Its inhibition in vivo at 32 mg/kg is 40%.

And the inhibition in vivo at 64 mg/kg [1, 3]?
Its inhibition in vivo at 64 mg/kg is 55%.

What about the inhibition in vivo at 128 mg/kg [1, 3] of the same molecule?
The inhibition in vivo at 128 mg/kg was 62%.

And the inhibition in vivo at 256 mg/kg [1, 3]?
Its inhibition in vivo at 256 mg/kg is 81%.

And the ED50 [1]?
Its ED50 is 60 mg/kg.

And the inhibition in vivo at 16 mg/kg [2, 4]?
Its inhibition in vivo at 16 mg/kg is 0%.

And the inhibition in vivo at 32 mg/kg [2, 4]?
Its inhibition in vivo at 32 mg/kg is 1%.

And the inhibition in vivo at 64 mg/kg [2, 4]?
Its inhibition in vivo at 64 mg/kg is 21%.

What about the inhibition in vivo at 128 mg/kg [2, 4] of the same molecule?
Its inhibition in vivo at 128 mg/kg is 41%.

And the inhibition in vivo at 256 mg/kg [2, 4]?
Its inhibition in vivo at 256 mg/kg is 30%.

What about the ED50 [2] of the same molecule?
The ED50 was > 256 mg/kg.
